{"source": "paper PMC11538131", "about": "“Degradation mechanism of difructose dianhydride III in Blautia species” (Applied Microbiology and Biotechnology, 2024)", "target": "T1, GH32 β-D-fructofuranosidase BBDE_1523 (Bifidobacterium dentium, UniProt D2Q5I2)", "T1 construct": "gene fosC; cloned and expressed as BpDFA-IIIase (pET23a, C-terminal His-tag, E. coli BL21(DE3), TALON)", "T1 sequence (D2Q5I2 1-518)": "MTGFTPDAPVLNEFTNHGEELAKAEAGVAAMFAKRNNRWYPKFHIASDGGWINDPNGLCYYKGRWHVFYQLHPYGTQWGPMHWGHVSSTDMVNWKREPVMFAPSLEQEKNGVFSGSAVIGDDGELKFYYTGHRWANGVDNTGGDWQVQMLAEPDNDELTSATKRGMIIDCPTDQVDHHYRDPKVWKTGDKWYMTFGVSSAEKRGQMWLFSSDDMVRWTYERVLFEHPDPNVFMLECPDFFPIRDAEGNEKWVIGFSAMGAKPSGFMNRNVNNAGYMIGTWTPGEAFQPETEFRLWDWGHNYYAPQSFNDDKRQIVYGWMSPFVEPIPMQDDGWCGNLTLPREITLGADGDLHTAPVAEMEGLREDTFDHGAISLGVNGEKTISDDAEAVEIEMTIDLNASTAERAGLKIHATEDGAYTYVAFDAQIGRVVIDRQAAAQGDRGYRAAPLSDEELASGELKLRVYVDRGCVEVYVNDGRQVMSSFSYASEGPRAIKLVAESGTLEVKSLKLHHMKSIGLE", "experiment": "TLC and HPAEC-PAD", "format": "biochemical", "details": "50 mM acetate pH 6.0, 37 °C, overnight; together with BpDFA-IIIase", "data": [{"smiles": "OC[C@H]1O[C@@](CO)(OCC2(O)OC[C@@H](O)[C@@H](O)[C@@H]2O)[C@@H](O)[C@@H]1O", "note": "(stereo partly shown) [inulobiose]", "values": [{"measurement": "TLC and HPAEC-PAD", "result": "DFA-III was completely hydrolyzed into D-fructose via inulobiose"}]}]}
